# Read-outs that look alike come from different tables or passages of the source.
# What was measured:
# [1] = system: Propionic Acidemia (PA) primary fibroblasts GM00371; test: Mitochondrial respiration, XFe96 Extracellular Flux Analyzer (OCR/ECAR), PA fibroblasts GM00371; type: cell-based; details: Homo sapiens, Fibroblast, read-out: Increase in Maximal Respiratory Capacity AUC
# [2] = system: Leigh Syndrome (LS) primary fibroblasts GM03672; test: NADP+/NADPH (NADP/NADPH-Glo), Leigh fibroblasts GM03672; type: cell-based; details: Homo sapiens, Fibroblast, 24h, read-out: Increase in Total NADP+ + NADPH
# Method: Primary adherent fibroblasts were cultured in minimum essential medium (MEM) (Gibco, 25030081) supplemented with 2 mM L-Glutamine (Gibco, 25030081), 15% fetal bovine serum (FBS) (Gibco, 26400044) and 1% penicillin/streptomycin (Gibco, 5140122) at 37° C. and 5% CO2. Cells were collected for either passaging or experiment at ˜70-80% confluence. Cells were obtained by trypsinization and seeded in cell culture microplates either white plate (Thermo Fisher Scientific, 152028) for luminescent measurement or black plate (Thermo Fisher Scientific, 165305) for fluorescent based read out for different assays listed below. Cells were obtained by trypsinization and […] were seeded and allowed to adhere for 16-18 hours to have confluency around 70-80% in the cell well with culture media. After 24 hours prior to measurements (37° C., 5% CO2) media was changed to Dulbecco's Modified Eagle Medium (DMEM, Agilent Seahorse cat #103575-100) with the appropriate supplements as stated below.
# Primary fibroblasts assayed were Propionic Acidemia (PA) (GM03590 Coriell Institute for Medical Research, Tsi 6337 Trans-Hit Bio), Methylmalonic Acidemia (MMA) (Tsi 5224 Trans-Hit Bio), Subnormal activation of pyruvate dehydrogenase complex (PDH) (GM01503 Coriell Institute for Medical Research), Very long-chain acyl-CoA dehydrogenase (VLCAD) (GM17475), Leigh Syndrome (LS) (GM03672, GM13411 Coriell Institute for Medical Research), Pyruvate Carboxylase Deficiency (PC) (GM00444 Coriell Institute for Medical Research). 10 μM of Compounds were added for 2 hours in PA, MMA lines and for 24h for the other fibroblast lines.
# Assay was performed according to manufacturer instructions (NADP+/NADPH-Glo Assay Promega, G9082). Assay required a plate for total measurement of NADP+/NADPH and a plate for individual measurement of NADP+ or NADPH. For every assay a 12-point standard curve is prepared ranging from 400 nM to 0.625 nM. Media is removed and replaced with 50 μl of PBS for both assays.
# For individual NADP+/NADPH measurements, 50 μl of 1% DTAB (Sigma, D5047) (cell lysis reagent) in 0.2N NaOH was added to the plates and 100 μl of lysate was split into two plates with 50 μl each from which ratio of NADP/NADPH can be calculated. 25 μl of 0.4N HCl were added to the NADP+ plates and both NADP+ and NADPH plates were heated at 60° C. for 15 minutes. The acid and heat treatment destroyed NADPH allowing individual NADP+ measurements while heating in basic conditions destroys NADP+ allowing individual NADPH measurement. After 15 minutes plates were allowed to come to room temperature and Trizma base (Sigma, T1699) was added to the NADP+ plates to neutralize the acid and HCl Trizma hydrochloride (Sigma, T2694) was added to the NADPH plates. The NADNADPH glo reagent was prepared by adding 125 μl of NAD cycling substrate, 125 μl of reductase, 125 μl of reductase substrate, 125 μl NAD cycling enzyme to a total of the 25 ml of NAD GLO reagent. 1:1 ratio of total volume of reagent was added to the individual NADP+, NADPH measurements (total 100 μl) and 50 μl were added for the total NAD/NADPH measurements. Luminescence was measured for 30-60 minutes within the linear range.
# A total dead cell count was performed as described in Example 817 and only alive cells were used for analysis.
# [3] = system: Venular Endothelial cells (HUVEC) (4H system); test: BioMAP 4H system (IL-4 and histamine); type: cell-based, human; details: 1 uM, procedure of Example 826
# [4] = system: Peripheral blood mononuclear cells co-cultured with venular endothelial cells (HUVEC) (LPS system); test: BioMAP LPS system; type: cell-based, human; details: procedure of Example 827
# [5] = system: Bronchial epithelial cells co-cultured with dermal fibroblast (BF4T system); test: BioMAP BF4T system (TNFα and IL-4); type: cell-based, human; details: Homo sapiens, 24 h; 10 uM; procedure of Example 830; read-out: % increase in VCAM-1
# [6] = system: Dermal fibroblasts (HDF3CGF system); test: BioMAP HDF3CGF system (IL-1β, TNFα, IFNγ, EGF, bFGF, PDGF-BB); type: cell-based, human; details: 10 uM; procedure of Example 833
# [7] = system: Peripheral blood mononuclear cells co-cultured with B-cells (BT system); details: 1 uM; procedure of Example 829
# [8] = system: Peripheral blood mononuclear cells co-cultured with B-cells (BT system); test: cells; details: Homo sapiens, 72 h, read-out: % increase in sIL-6
# [9] = system: primary fibroblasts (healthy controls and PA, MMA, BCKDK, PDH, VLCAD, LS, PC, GA, VLCFA, KSS, FXN, HD); test: Measurement of ROS (H2DCFDA) in primary fibroblasts; type: cell-based, human; details: Homo sapiens, Fibroblast; HD GM21756; procedure Example 812; Assay Condition C; read-out: Decreased ROS by at least 30%
# Method in brief: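 Patient and healthy-control primary fibroblasts switched to supplemented DMEM 24 h before assay, then treated with compound (10 μM) plus H2DCFDA (22 μM) for 2 h (PA, MMA lines) or 24 h (other lines). Kinetic fluorescence at 492/527 nm over 60 min; only live cells analysed.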
# [10] = system: Methylmalonic Acidemia (MMA) primary fibroblasts GM01673; test: Mitochondrial respiration, XFe96 Extracellular Flux Analyzer (OCR/ECAR), MMA fibroblasts GM01673; type: cell-based; details: Homo sapiens, Fibroblast, assay condition A (10 mM glucose, 2 mM L-glutamine, 1 mM pyruvate, 10% FBS), 50 μM, read-out: Increase in Maximal Respiratory Capacity AUC
# Method: The effect of the compounds of the present disclosure on mitochondrial respiration was measured with a XFe96 Extracellular Flux Analyzer (Seahorse Bioscience, Agilent Technologies) and Oxygen consumption Rate (OCR) and Extracellular acidification rate (ECAR) determined.
# Cell culture and treatments. Primary adherent fibroblasts were cultured in minimum essential medium (MEM) (Gibco, 25030081) supplemented with 2 mM L-Glutamine (Gibco, 25030081), 15% fetal bovine serum (FBS) (Gibco, 26400044) and 1% penicillin/streptomycin (Gibco, 5140122) at 37° C. and 5% CO2. Cells were collected for either passaging or experiment at ˜70-80% confluence. Cells were obtained by trypsinization and seeded at 20000 cells/well in cell culture microplates (Seahorse Bioscience, 101085-004) and allowed to adhere for 16 hours in culture media.
# By profiling different primary cells and/or optimizing their culture media or environmental components one can select cell lines and/or conditions that are appropriate for the biological or disease model. In the present example, 24 hours prior to OCR and ECAR profiling, media was changed to Dulbecco's Modified Eagle Medium (DMEM, Agilent Seahorse 103575-100) with the appropriate supplements for the different primary cells (10 mM glucose, 2 mM L-glutamine, 1 mM pyruvate, 10% FBS; 1 mM glucose, 2 mM L-glutamine, 1 mM pyruvate, 10% FBS; 10 mM glucose, 10% FBS; 5 mM glucose 10% FBS; 1 mM glucose 10% FBS). Cells used in this example were: Propionic Acidemia (PA) (GM00371, GM03590 Coriell Institute for Medical Research, Tsi 6337, Tsi 4626, Tsi 3618 Trans-Hit Bio), Methylmalonic Acidemia (MMA) (GM01673, Coriell Institute for Medical Research, Tsi 5224 Trans-Hit Bio), Branched chain ketoacid dehydrogenase kinase (BCKDK) (GM00612, GM00649 Coriell Institute for Medical Research), Subnormal activation of pyruvate dehydrogenase complex (PDH) (GM01503 Coriell Institute for Medical Research), Very long-chain acyl-CoA dehydrogenase (VLCAD) (GM17475), Leigh Syndrome (LS) (GM03672, GM13411 Coriell Institute for Medical Research), Pyruvate Carboxylase Deficiency (PC) (GM00444 Coriell Institute for Medical Research), Glutaric Acidemia-I (GA) (GM10653), Friedreich's Ataxia (FXN) (GM04078 Coriell Institute for Medical Research, Huntington's disease (HD) (GM21756 Coriell Institute for Medical Research), Ornithine Transcarbamylase Deficiency (OTC) (GM12756 Coriell Institute for Medical Research), Kearns-Sayre Syndrome (KSS) (GM06225 Coriell Institute for Medical Research).
# One hour before the assay, the cells were washed with freshly prepared unbuffered serum free-Seahorse XF Assay medium (Seahorse Bioscience, North America, USA, 103575-100) with the same supplements as for the previous 24 hour incubation.
# After baseline measurements of OCR, cells were challenged with compounds of the present disclosure at different concentrations (10 to 50 μM) or vehicle (DMSO, 0.1%) and a post-compound baseline was recorded. OCR was measured after sequentially adding to each well 1 μg/ml oligomycin (inhibitor of ATP synthase Sigma-Aldrich, 753531), then maximal OCR was determined with carbonyl cyanide 4-(trifluoromethoxy) phenylhydrazone (FCCP, Sigma-Aldrich, C2920), (uncoupler of oxidative phosphorylation) and 0.5 μM of rotenone (Sigma-Aldrich, R8875) plus antimycin A (Sigma-Aldrich, A8674) (inhibitors of mitochondrial complex I and III) for determination of rotenone-antimycin insensitive respiration together with Hoechst for nuclear staining in situ when normalized to cell counts. After the analysis and nuclear staining, the XFp microplate was transferred to the Cytation 5, and the nuclear images were captured, the individual nuclei were identified and counted by BioTek Gen5 software. Data were expressed as pmol of O2 per minute and normalized by nuclear staining and baselined to pre-compound addition.
# Assay conditions were as stated below.
# Assay specifics on assay conditions are indicated below when readouts were normalized to cell counts. […]
# [11] = system: primary fibroblasts GM00649, GM06225, GM00612, GM00444, GM03672; test: MMP, ROS and ATP multiplex (ArrayScan); type: cell-based; details: Homo sapiens, Fibroblast; Leigh GM03672; procedure Example 838; 50 μM (table line r25); read-out: Decreased ROS by at least 10%
# Method: Cell culture and treatments. Primary adherent fibroblasts were cultured in minimum essential medium (MEM) (Gibco, 25030081) supplemented with 2 mM L-Glutamine (Gibco, 25030081), 15% fetal bovine serum (FBS) (Gibco, 26400044) and 1% penicillin/streptomycin (Gibco, 5140122) at 37° C. and 5% CO2. Cells were collected for either passaging or experiment at ˜70-80% confluence. Cells were obtained by trypsinization and seeded at 10000 cells/well in cell culture microplates (Seahorse Bioscience, 101085-004) and allowed to adhere for 16 hours in culture media. After media was refreshed with DMEM (Agilent Seahorse 103575-100) supplemented with 1 mM glucose and 10% FBS (Gibco, 26400044). At the end of the incubation period, the cells were loaded with the relevant dye/antibody for each cell health marker. The assay provided simultaneous measurement of cell health parameters including cell count, ROS formation (DHE), mitochondrial membrane potential (MitoTracker®) and cellular ATP content (CellTiter-Glo®, Promega). The plates were then scanned using an automated fluorescent cellular imager, ArrayScan® (Thermo Scientific Cellomics). Assay conditions were optimized by one skilled in the art.
# Primary cells used in this example were obtained from Coriell Institute for Medical Research and consisted of GM00649, MSUD (Maple Syrup Urine Disease) Tyle IA; GM06225, Kearns-Sayre Syndrome; GM00612, MSUD (Maple Syrup Urine Disease) Tyle II GM00444, Pyruvate Carboxylase Deficiency and GM03672, Leigh Syndrome.
smiles,measurement,setting,value
"CC(C)(CO)[C@@H](O)C(=O)NCCC(=O)NCCSC(CC(=O)O)C(=O)O (stereo partly drawn) [Compound 46, 2-[(2-[3-[(2R)-2,4-dihydroxy-3,3-dimethylbutanamido]propanamido]ethyl)sulfanyl]butanedioic acid]",activation at 50 µM,"[1]; assay condition C (10 mM glucose, 10% FBS), 50 μM",≥ 10%
same,activation at 10 µM,"[2]; Leigh GM03672 P8, assay condition B (1 mM glucose, 2 mM L-glutamine, 1 mM pyruvate, 10% FBS)",≥ 10%
same,% increase in E-Selectin,[3],≥10%
same,inhibition at 1 µM,"[3]; Homo sapiens, HUVEC, 24 h, read-out: % decrease in E-Selectin",≥ 10%
same,% increase in sPGE2,[4]; 1 uM,≥10%
same,activation at 10 µM,"[4]; Homo sapiens, HUVEC, 24 h, 10 uM, read-out: % increase in sTNFα",≥ 10%
same,activation at 10 µM,[5],≥ 10%
same,% decrease in Collagen I,[6],≥10%
same,% decrease in B-cell proliferation,[7],≥20%
same,% decrease in sIL-2,[7],≥20%
same,% decrease in sTNFα,[7],≥20%
same,activation at 10 µM,[8],≥ 10%
"CCC(=O)SCCNC(=O)CCNC(=O)[C@H](O)C(C)(C)CO [Compound 398, (2R)-2,4-dihydroxy-3,3-dimethyl-N-(2-[[2-(propanoylsulfanyl)ethyl]carbamoyl]ethyl)butanamide]",activation at 10 µM,"[1]; assay condition D (1 mM glucose, 10% FBS), 10 μM",≥ 10%
same,inhibition at 10 µM,[9],≥ 30%
same,activation at 10 µM,"[2]; Leigh GM03672 P9, assay condition A (10 mM glucose, 2 mM L-glutamine, 1 mM pyruvate, 10% FBS)",≥ 10%
CCOC(=O)C(=O)SCCNC(=O)CCNC(=O)[C@H](O)C(C)(C)COP(=O)(O)O [Compound 61],activation at 50 µM,[10],≥ 10%
same,inhibition at 50 µM,[11],≥ 10%

# From US20230107216A1, “PANTETHEINE DERIVATIVES AND USES THEREOF” (Comet Therapeutics, Inc., priority 2018, published 2023)
